Measurements from US20230286973A1, “PROTEIN SECRETION INHIBITORS” (KEZAR LIFE SCIENCES, priority 2020, published 2023).

How the values were obtained:
[1] = test system: TNFα-FL/Gaussia Luciferase; assay: Dox Induced TNFα-FL-Gluc Assay; format: cell-based; conditions: for IC50: 24 hr Dox induction, 293FRT/TO cells, read-out: 24 hr Dox Inducible TNFaFLGluc 293FRT/TO: Mean IC50; for 24 hr Dox Inducible TNFaFLGluc 293FRT/TO: TNF/PD1: ratio of TNFaFLGluc IC50 to PD1ssGluc IC50
In short: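 Flp-In 293 T-REx cells stably carrying doxycycline-inducible full-length TNFα (aa 1-233) fused to Gaussia luciferase. Plated the day before, then treated with compound dilutions in doxycycline-containing medium at 37° C, 5% CO2.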

[2] = test system: IL-2-FL/Gaussia Luciferase; assay: Dox Induced IL2-FL-Gluc Assay; format: cell-based; conditions: for IC50: 24 hr Dox induction, 293FRT/TO cells, read-out: 24 hr Dox Inducible IL2FLGluc 293FRT/TO: Mean IC50; for 24 hr Dox Inducible IL2FLGluc 293FRT/TO: IL2/PD1: ratio of IL2FLGluc IC50 to PD1ssGluc IC50
In short: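 Stable Flp-In 293 T-REx cells carrying doxycycline-inducible full-length IL-2 (aa 1-153) fused to Gaussia luciferase, plated the day before assay. Compound dilutions added in medium containing doxycycline, incubated at 37 °C, 5% CO2. Undefined stereocentres mean data refer to stereoisomer mixtures.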

[3] = test system: multiple myeloma cell line U266B1; assay: U266 Cell Viability Assay; format: cell-based, human; conditions: Homo sapiens, U-266, 48 h, U266B1 cells, Celltiter-Glo
In short: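 U266B1 multiple myeloma cells in RPMI 1640/10% FBS were treated with compound dilutions for 48 h at 37 °C, 5% CO2. Viability was measured by CellTiter-Glo luminescence; compounds drawn without stereochemistry were tested as stereoisomer mixtures.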

[4] = Liver Microsome Stability Assay (monkey); conditions: monkey liver microsomes, with NADPH, 1.0 uM compound
Description: (§1) Stability of a compound was assessed in the presence of liver microsomes from various sources—mouse, rat, monkey and human liver microsomes. 1.0 uM compound, 0.4% DMSO in 0.1 M Potassium Phosphate with 1.0 mg/mL liver microsomes, were incubated at 37° C. with or without 1 mM NADPH. The samples were quenched at 0, and 30 minutes.

[5] = Liver Microsome Stability Assay (rat); conditions: rat liver microsomes, with NADPH, 1.0 uM compound
Description: as §1

[6] = test system: PD1-ss+10aa/Gaussia Luciferase; assay: Dox-Induced PD1-ss-Gluc Assay; format: cell-based; conditions: 24 hr Dox induction; 293FRT/TO cells; read-out: 24 hr Dox Inducible PD1ssGluc 293FRT/TO: Mean IC50
In short: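 Compounds were added in DMSO/media with doxycycline and incubated at 37 °C, 5% CO2, on 293 T-REx cells plated one day earlier. These cells stably express, under tetracycline-regulated control, a Gaussia luciferase fused to the PD1 signal peptide plus 10 residues. Structures drawn without stereochemistry were tested as stereoisomer mixtures.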

[7] = Liver Microsome Stability Assay (human); conditions: human liver microsomes, with NADPH, 1.0 uM compound
Description: as §1

[8] = Liver Microsome Stability Assay (mouse); conditions: mouse liver microsomes, with NADPH, 1.0 uM compound
Description: as §1

[9] = test system: HER3-ss+4aa/Gaussia Luciferase; assay: Dox-Induced Her3-ss-Gluc Assay; format: cell-based; conditions: 24 hr Dox induction; 293FRT/TO cells; read-out: 24 hr Dox Inducible Her3(ss + 4)Gluc 293FRT/TO: Mean IC50
In short: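 Stable Flp-In 293 T-REx cells carried a doxycycline-inducible HER3 signal sequence (+4 aa) fused to Gaussia luciferase. Cells were plated the day before the assay. Compound dilutions in DMSO/media containing doxycycline were then added, and plates were incubated at 37 °C, 5% CO2.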

[10] = test system: multiple myeloma cell line NCI-H929; assay: H929 Cell Viability Assay; format: cell-based, human; conditions: Homo sapiens, NCI-H929, 48 h, NCI-H929 cells, Celltiter-Glo
In short: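 NCI-H929 cells in RPMI 1640 with 10% FBS were treated with compound dilutions for 48 h at 37° C, 5% CO2. Viability was read by CellTiter-Glo luminescence. Undefined stereocentres denote stereoisomer mixtures.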

IC50 [1] [µM]	IC50 [2] [µM]	EC50 [3] [µM]	Liver Microsome Stability (Multiple Species): Monkey - % Remaining after 30 min w/NADPH [4] [%]	Liver Microsome Stability (Multiple Species): Rat - % Remaining after 30 min w/NADPH [5] [%]	IC50 [6] [µM]	Liver Microsome Stability (Multiple Species): Human - % Remaining after 30 min w/NADPH [7] [%]	Liver Microsome Stability (Multiple Species): Mouse - % Remaining after 30 min w/NADPH [8] [%]	IC50 [9] [µM]	EC50 [10] [µM]	SMILES	24 hr Dox Inducible TNFaFLGluc 293FRT/TO: TNF/PD1 [1]	24 hr Dox Inducible IL2FLGluc 293FRT/TO: IL2/PD1 [2]
4.14	0.576	> 25	1.39	1.44	0.0225	8.85	1.17	0.127	> 25	Cc1ccc(/C=C/c2csc(NC(=O)c3cccn3Cc3ccncc3)n2)nc1F [Compound B48, (E)-N-(4-(2-(6-fluoro-5-methylpyridin-2-yl)vinyl)thiazol-2-yl)-1-(pyridin-4-ylmethyl)-1H-pyrrole-2-carboxamide]	184	26
2.51	1.26	> 19.1	1.51	4.13	0.0274	1.53	12.5	0.131	11.2	Cc1ccc(/C=C/c2csc(NC(=O)c3cccn3Cc3ccnc(F)c3)n2)nc1F [Compound B49, (E)-N-(4-(2-(6-fluoro-5-methylpyridin-2-yl)vinyl)thiazol-2-yl)-1-((2-fluoropyridin-4-yl)methyl)-1H-pyrrole-2-carboxamide]	91.4	46
> 25	> 25	> 24.6	0.74	0.06	0.339	1.21	0.94	11.4	18.8	O=C(Nc1nc(/C=C/c2cn3ccccc3n2)cs1)c1cccn1Cc1ccncc1 [Compound B50, (E)-N-(4-(2-(imidazo[1,2-a]pyridin-2-yl)vinyl)thiazol-2-yl)-1-(pyridin-4-ylmethyl)-1H-pyrrole-2-carboxamide]	>73.7	>74
> 25	> 25	> 25	0.27	1.43	5.38	0.21	6.7	> 25	> 25	Cc1nc(/C=C/c2csc(NC(=O)c3cccn3Cc3ccncc3)n2)cn1C [Compound B51, (E)-N-(4-(2-(1,2-dimethyl-1H-imidazol-4-yl)vinyl)thiazol-2-yl)-1-(pyridin-4-ylmethyl)-1H-pyrrole-2-carboxamide]	>4.65	>4.6
4.84	2.1	> 25	10.8	4.04	0.0255	5.82	32.1	0.735	15.9	O=C(Nc1nc(/C=C/c2ncoc2C2CCCCC2)cs1)c1cccn1Cc1ccncc1 [Compound B52, (E)-N-(4-(2-(5-cyclohexyloxazol-4-yl)vinyl)thiazol-2-yl)-1-(pyridin-4-ylmethyl)-1H-pyrrole-2-carboxamide]	190	82
3.84	1.67	> 25	1.39	2.11	0.0381	5.98	14.5	0.878	11.2	O=C(Nc1nc(/C=C/c2ncoc2C2CCCCC2)cs1)c1cccn1Cc1ccnc(F)c1 [Compound B53, (E)-N-(4-(2-(5-cyclohexyloxazol-4-yl)vinyl)thiazol-2-yl)-1-((2-fluoropyridin-4-yl)methyl)-1H-pyrrole-2-carboxamide]	101	44
9.42	5.52	> 23.6	2.69	4.57	0.00685	0.4	4.16	2.95	13.9	O=C(Nc1nc(/C=C/c2cn(C3CCCCC3)cn2)cs1)c1cccn1Cc1ccncc1 [Compound B54, (E)-N-(4-(2-(1-cyclohexyl-1H-imidazol-4-yl)vinyl)thiazol-2-yl)-1-(pyridin-4-ylmethyl)-1H-pyrrole-2-carboxamide]	1370	810
> 25	> 25	> 25	0.27	0.57	0.52	0.46	1.72	> 25	> 25	COCCn1cnc(/C=C/c2csc(NC(=O)c3cccn3Cc3ccncc3)n2)c1 [Compound B56, (E)-N-(4-(2-(1-(2-methoxyethyl)-1H-imidazol-4-yl)vinyl)thiazol-2-yl)-1-(pyridin-4-ylmethyl)-1H-pyrrole-2-carboxamide]	>48.0	>48
16.7	> 25	> 24.2	2.84	34.4	2.86	17.5	17.3	> 25	16.3	CC(C)n1cncc1/C=C/c1csc(NC(=O)c2cccn2Cc2ccncc2)n1 [Compound B57, (E)-N-(4-(2-(1-isopropyl-1H-imidazol-5-yl)vinyl)thiazol-2-yl)-1-(pyridin-4-ylmethyl)-1H-pyrrole-2-carboxamide]	5.83	>8.7

SMILES	IC50 [1] [µM]	IC50 [2] [µM]	EC50 [3] [µM]	Liver Microsome Stability (Multiple Species): Monkey - % Remaining after 30 min w/NADPH [4] [%]	Liver Microsome Stability (Multiple Species): Rat - % Remaining after 30 min w/NADPH [5] [%]	IC50 [6] [µM]	Liver Microsome Stability (Multiple Species): Human - % Remaining after 30 min w/NADPH [7] [%]	Liver Microsome Stability (Multiple Species): Mouse - % Remaining after 30 min w/NADPH [8] [%]	IC50 [9] [µM]	EC50 [10] [µM]	24 hr Dox Inducible TNFaFLGluc 293FRT/TO: TNF/PD1 [1]	24 hr Dox Inducible IL2FLGluc 293FRT/TO: IL2/PD1 [2]
O=C(Nc1nc(/C=C/c2cn(C3CCCCC3)cn2)cs1)c1cccn1Cc1ccnc(F)c1 [Compound B55, (E)-N-(4-(2-(1-cyclohexyl-1H-imidazol-4-yl)vinyl)thiazol-2-yl)-1-((2-fluoropyridin-4-yl)methyl)-1H-pyrrole-2-carboxamide]	6.62	2.01	> 25	0.4	0.3	0.0253	0.41	1.7	1.17	> 20.8	262	79
